Legend:
Rattus norvegicus [1] = experiment: Antiinflammatory activity by carrageenan-induced rat paw edema assay after 3 hr at 100 mg/kg concentration administered perorally.; format: functional; conditions: route oral
Rattus norvegicus [2] = experiment: Antiinflammatory activity was evaluated by carrageenan-induced rat paw edema assay after 3 hr at 100 mg/kg concentration administered perorally; format: functional; conditions: route oral
Rattus norvegicus [3] = experiment: Antiinflammatory activity was evaluated by carrageenan-induced rat paw edema assay after 3 hr at 100 mg/kg concentration administered perorally (=p</=0.01); format: functional; conditions: route oral
[4] = Compound was evaluated for lethal dose in mice when administarted intraperitoneally; format: toxicity, organism-based; conditions: mouse, in vivo, ip
Mus musculus [5] = experiment: Compound was evaluated for analgesia at 100 mg/kg when administered perorally (- = positive mice</=1); format: functional; conditions: route oral
Rattus norvegicus [6] = experiment: Antiinflammatory activity was evaluated by contund edema after 3 hr at 200 mg/kg concentration administered perorally; format: functional; conditions: route oral
Rattus norvegicus [7] = experiment: Antiinflammatory activity was evaluated by carrageenan-induced rat paw edema assay after 3 hr at 100 mg/kg concentration administered perorally (=p< 0.05); format: functional; conditions: route oral
Rattus norvegicus [8] = experiment: Compound was tested for inhibition of carrageenan induced edema when administered perorally; format: functional; conditions: po
Rattus norvegicus [9] = experiment: Compound was tested for inhibition of scald edema when administered perorally; format: functional; conditions: po
[10] = Compound was tested for acute toxicity when administered intraperitoneally in mice; format: organism-based; conditions: mouse, in vivo, ip
Rattus norvegicus [11] = experiment: Compound was tested for anti-pyrexia (Yeast-induced pyrexia) when administered perorally; format: functional; conditions: po
Rattus norvegicus [12] = experiment: Compound was tested for inhibition of contund edema when administered perorally; format: functional; conditions: po
Rattus norvegicus [13] = experiment: Compound was tested for ulcerogenicity when administered perorally; format: functional
Rattus norvegicus [14] = experiment: Compound was tested for analgesia by Acetic acid writhing method when administered perorally; format: functional; conditions: po
Mus musculus [15] = experiment: Compound was evaluated for analgesia at 100 mg/kg when administered perorally (+ = positive mice >/=2); format: functional; conditions: route oral
Cyclooxygenase = biological target: T1, Cyclooxygenase (Rattus norvegicus, UniProt P35355+Q63921); experiment: Compound was tested for inhibition of prostaglandin synthetase […]; format: protein assay
T1 sequence (P35355 whole entry): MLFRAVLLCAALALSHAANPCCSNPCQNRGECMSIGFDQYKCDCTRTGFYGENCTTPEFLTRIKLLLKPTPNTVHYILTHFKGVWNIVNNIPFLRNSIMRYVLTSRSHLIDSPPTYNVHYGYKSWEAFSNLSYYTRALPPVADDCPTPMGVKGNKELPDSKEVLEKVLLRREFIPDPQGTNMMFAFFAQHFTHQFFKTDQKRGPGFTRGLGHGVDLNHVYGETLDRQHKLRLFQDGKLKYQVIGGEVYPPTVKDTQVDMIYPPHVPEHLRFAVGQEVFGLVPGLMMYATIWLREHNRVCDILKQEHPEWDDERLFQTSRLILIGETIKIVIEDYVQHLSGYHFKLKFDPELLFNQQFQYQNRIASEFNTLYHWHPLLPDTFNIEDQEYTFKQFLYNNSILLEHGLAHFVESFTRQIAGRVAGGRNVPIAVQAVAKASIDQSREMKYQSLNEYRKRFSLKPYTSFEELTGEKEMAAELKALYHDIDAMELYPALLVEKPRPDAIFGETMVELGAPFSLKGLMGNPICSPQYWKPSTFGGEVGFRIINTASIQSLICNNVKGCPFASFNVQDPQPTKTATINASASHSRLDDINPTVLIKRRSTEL
T1 sequence (Q63921 whole entry): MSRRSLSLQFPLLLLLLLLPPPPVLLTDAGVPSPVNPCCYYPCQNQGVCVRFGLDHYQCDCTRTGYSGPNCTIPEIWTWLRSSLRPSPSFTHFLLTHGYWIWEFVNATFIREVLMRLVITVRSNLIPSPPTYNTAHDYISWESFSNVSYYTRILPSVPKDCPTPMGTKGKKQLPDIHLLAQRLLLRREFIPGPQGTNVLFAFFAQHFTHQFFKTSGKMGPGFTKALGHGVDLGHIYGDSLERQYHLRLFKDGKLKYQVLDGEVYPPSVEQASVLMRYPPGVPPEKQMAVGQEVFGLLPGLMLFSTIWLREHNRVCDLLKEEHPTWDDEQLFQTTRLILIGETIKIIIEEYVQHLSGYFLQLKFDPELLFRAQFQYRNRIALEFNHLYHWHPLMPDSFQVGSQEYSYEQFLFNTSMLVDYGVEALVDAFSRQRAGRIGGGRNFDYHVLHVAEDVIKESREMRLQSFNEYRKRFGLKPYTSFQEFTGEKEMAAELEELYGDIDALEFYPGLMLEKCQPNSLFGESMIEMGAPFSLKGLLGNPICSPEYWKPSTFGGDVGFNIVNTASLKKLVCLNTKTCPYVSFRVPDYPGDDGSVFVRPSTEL

Mus musculus [16] = experiment: Compound was tested for acute toxicity when administered perorally; format: functional; conditions: po
Rattus norvegicus [17] = experiment: Compound was tested for anti-pyrexia when administered perorally; format: functional; conditions: po
Rattus norvegicus [18] = experiment: Compound was tested for inhibition of contund edema when administered perorally; conditions: po
Rattus norvegicus [19] = experiment: Compound was tested for analgesia when administered perorally; format: functional; conditions: po
Rattus norvegicus [20] = experiment: Antiinflammatory activity was evaluated by contund edema assay after 3 hr at 200 mg/kg concentration administered perorally; format: functional; conditions: route oral
Mus musculus [21] = experiment: Compound was evaluated for analgesic activity at 100 mg/kg when administered perorally (- = positive mice</= 1); format: functional; conditions: route oral
Mus musculus [22] = experiment: Compound was evaluated for analgesia at 100 mg/kg when administered perorally (+ = positive mice >/= 2); format: functional; conditions: route oral

SMILES	inhibition in vivo at 100 mg/kg (Rattus norvegicus [1]) [%]	inhibition in vivo at 100 mg/kg (Rattus norvegicus [2]) [%]	further results
Cc1cccc(-c2nc3cc(O)ccc3[nH]2)n1	6		
c1ccc(-c2nc3ccccc3[nH]2)nc1		22	
Cc1ccc(-c2nc3ccccc3n2CC(=O)N2CCN(CCO)CC2)nc1	14		
Cc1ccc(-c2nc3ccccc3n2CC(=O)N2CCCCC2)nc1	2		
Cc1ccnc(-c2nc3ccccc3[nH]2)c1		-4	
Cc1ccc2[nH]c(-c3cccc(O)n3)nc2c1	-6		
COc1cccc(-c2nc3cc(C)ccc3[nH]2)n1	32		
Cc1ccc2[nH]c(-c3cccc(Cl)n3)nc2c1		36	
OCc1ccc(-c2nc3ccccc3[nH]2)nc1		-10	
CCc1ccc(-c2nc3cc(NC(C)=O)ccc3[nH]2)nc1	5		
CCc1ccc(-c2nc3cc(OC)ccc3[nH]2)nc1			inhibition in vivo at 100 mg/kg (Rattus norvegicus [3]): 58%; LD50 [4]: > 300 mg/kg; Activity (Mus musculus [5]): 1
CCOC(=O)c1cccc(-c2nc3ccccc3[nH]2)n1		31	
NC(=O)c1cccc(-c2nc3ccccc3[nH]2)n1		13	
Oc1cccc(-c2nc3ccccc3[nH]2)n1		-7	
CCc1ccc(-c2nc3ccccc3n2-c2ccccc2)nc1	12		
Cc1ccc(-c2nc3ccccc3[nH]2)nc1C	37		
Cc1cccnc1-c1nc2ccccc2[nH]1		17	
CCc1ccc(-c2nc3ccccc3n2CC(=O)N2CCN(CCO)CC2)nc1	4		
Cc1ccc2[nH]c(-c3cccc(C)n3)nc2c1	42		LD50 [4]: 812 mg/kg; Activity (Mus musculus [5]): 1; inhibition in vivo at 200 mg/kg (Rattus norvegicus [6]): 67%
CCc1ccc(-c2nc3cc(C)ccc3[nH]2)nc1			inhibition in vivo at 100 mg/kg (Rattus norvegicus [7]): 35%
Cc1cccc(-c2nc3cc(Cl)ccc3[nH]2)n1	39		LD50 [4]: 1230 mg/kg; Activity (Mus musculus [5]): 1; inhibition in vivo at 200 mg/kg (Rattus norvegicus [6]): 95%
CCc1ccc(-c2nc3ccccc3[nH]2)nc1		44	ED40 (Rattus norvegicus [8]): 70 mg/kg; ED40 (Rattus norvegicus [9]): 110 mg/kg; LD50 [10]: 1230 mg/kg; ED60 (Rattus norvegicus [11]): 68 mg/kg; LD50 [4]: 1230 mg/kg; inhibition in vivo at 200 mg/kg (Rattus norvegicus [6]): 81%; ED40 (Rattus norvegicus [12]): 142 mg/kg; UD50 (Rattus norvegicus [13]): 200 mg/kg; ED50 (Rattus norvegicus [14]): 140 mg/kg; Activity (Mus musculus [15]): 2; IC50 (Cyclooxygenase): 0.000076 M
Cc1ccc(-c2nc3ccccc3n2CCN(C)C)nc1	12		
Clc1ccc2nc(-c3ccccn3)[nH]c2c1		36	
CCc1cccc(-c2nc3ccccc3[nH]2)n1		41	LD50 [4]: > 300 mg/kg; inhibition in vivo at 200 mg/kg (Rattus norvegicus [6]): 85%
COc1ccc2[nH]c(-c3ccccn3)nc2c1		34	
CCCCC1C(=O)N(c2ccccc2)N(c2ccccc2)C1=O [PHENYLBUTAZONE]	43		ED40 (Rattus norvegicus [8]): 100 mg/kg; LD50 (Mus musculus [16]): 616 mg/kg; ED40 (Rattus norvegicus [9]): 180 mg/kg; ED60 (Rattus norvegicus [17]): 44 mg/kg; ED40 (Rattus norvegicus [18]): 200 mg/kg; UD50 (Rattus norvegicus [13]): 142 mg/kg; ED50 (Rattus norvegicus [19]): 280 mg/kg; IC50 (Cyclooxygenase): 0.000015 M
CCc1ccc(-c2nc3cc([N+](=O)[O-])ccc3[nH]2)nc1	-5		

SMILES	inhibition in vivo at 100 mg/kg (Rattus norvegicus [1]) [%]	inhibition in vivo at 100 mg/kg (Rattus norvegicus [2]) [%]	further results
Clc1cccc(-c2nc3ccccc3[nH]2)n1		30	
CCc1ccc(-c2nc3ccccc3n2CC(=O)N2CCCC2)nc1	-5		
CCOC(=O)c1ccc(-c2nc3ccccc3[nH]2)nc1		-16	
Cl.O=C(Cn1c(=O)sc2ccc(Cl)cc21)N1CCN(CCO)CC1 [TIARAMIDE HYDROCHLORIDE]	31		ED40 (Rattus norvegicus [8]): 160 mg/kg; LD50 (Mus musculus [16]): 203 mg/kg; ED40 (Rattus norvegicus [9]): 200 mg/kg; ED60 (Rattus norvegicus [17]): 100 mg/kg; ED40 (Rattus norvegicus [18]): 200 mg/kg; UD50 (Rattus norvegicus [13]): 163 mg/kg; ED50 (Rattus norvegicus [19]): 76 mg/kg; IC50 (Cyclooxygenase): > 0.0001 M
CCc1ccc(-c2nc3cc(Cl)ccc3[nH]2)nc1	-2		
CCc1ccc(-c2nc3ccccc3n2CC(=O)OC)nc1	9		
CCc1cccc(-c2nc3cc(OC)ccc3[nH]2)n1	52		LD50 [4]: > 300 mg/kg; Activity (Mus musculus [5]): 1; inhibition in vivo at 200 mg/kg (Rattus norvegicus [6]): 87%
COC(=O)Cn1c(-c2ccccn2)nc2ccccc21	-17		
OCc1cccc(-c2nc3ccccc3[nH]2)n1		-13	
Cc1ccc(-c2nc3cc(C)ccc3[nH]2)nc1		7	
CCc1ccc(-c2nc3cc(N)ccc3[nH]2)nc1	25		
CCc1ccc(-c2nc3cc(O)ccc3[nH]2)nc1	25		
CCc1cccc(-c2nc3cc(C)ccc3[nH]2)n1	10		
Cc1ccc(-c2nc3ccccc3n2CC(=O)N2CCCC2)nc1	14		
Cc1ccc2[nH]c(-c3ccc(C)c(C)n3)nc2c1	-19		
CCCCc1ccc(-c2nc3ccccc3[nH]2)nc1		-16	
Cc1ccc2nc(-c3ccccn3)[nH]c2c1		35	
CCc1cccc(-c2nc3cc(Cl)ccc3[nH]2)n1	3		
CCc1ccc(-c2nc3ccccc3n2C)nc1	5		
Cc1ccc(-c2nc3ccccc3[nH]2)nc1		19	
Cc1cccc(-c2nc3ccccc3[nH]2)n1		44	inhibition in vivo at 200 mg/kg (Rattus norvegicus [20]): 59%; LD50 [4]: 3250 mg/kg; Activity (Mus musculus [21]): 1
Cc1ccc(-c2nc3ccccc3n2CC(=O)N2CCN(C)CC2)nc1	11		
Cc1ccc(-c2nc3cc(Cl)ccc3[nH]2)nc1	-5		
COc1cccc(-c2nc3ccccc3[nH]2)n1		47	Activity (Mus musculus [22]): >=2; LD50 [4]: > 300 mg/kg
COc1ccc2[nH]c(-c3cccc(C)n3)nc2c1	40		LD50 [4]: 3730 mg/kg; Activity (Mus musculus [5]): 1; inhibition in vivo at 200 mg/kg (Rattus norvegicus [6]): 39%
CCc1ccc(-c2nc3ccccc3n2Cc2ccccc2)nc1	-18		
O=C(Cn1c(-c2ccccn2)nc2ccccc21)N1CCN(CCO)CC1	-4		
